This note sets out measurements from patent US8906889B2, “C-3 cycloalkenyl triterpenoids with HIV maturation inhibitory activity” (priority 2012, dated 2014).

This assay deals with recombinant NL4-3 virus (Renilla luciferase, Gag P373S). The assay can be described thus: HIV cell culture assay (luciferase reporter, MT-2 cells). Type of assay: cell-based. The following applies: Renilla, NL43, MT-2 cells infected for 4-5 days with NLRluc recombinants; luciferase activity. Put shortly:
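MT-2 cells were infected for 4–5 days with NL4-3 carrying Renilla luciferase in place of part of nef and the Gag P373S change, in the presence of serially diluted inhibitor. Antiviral activity was quantified as luciferase signal from Dual Luciferase reagent.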
(A reporter such as luciferase makes a cellular process visible.)
As a reminder, the EC50 is the concentration giving half of the maximal effect. Take `C=C(C)[C@@H]1CC[C@]2(NCCN3CCS(=O)(=O)CC3)CC[C@]3(C)[C@H](CC[C@@H]4[C@@]5(C)CC=C(C6=CCC(C#N)(C(=O)O)CC6)C(C)(C)[C@@H]5CC[C@]43C)[C@@H]12` (stereo partly drawn) [Example A5, 1-cyano-4-((1R,3aS,5aR,5bR,7aR,11aS,11bR,13aR,13bR)-3a-((2-(1,1-dioxidothiomorpholino)ethyl)amino)-5a,5b,8,8,11a-pentamethyl-1-(prop-1-en-2-yl)-2,3,3a,4,5,5a,5b,6,7,7a,8,11,11a,11b,12,13,13a,13b-octadecahydro-1H-cyclopenta[a]chrysen-9-yl)cyclohex-3-enecarboxylic acid]: the EC50 worked out at 4.26 nM.

Consider `C=C(C)[C@@H]1CC[C@]2(NCCN3CCS(=O)(=O)CC3)CC[C@]3(C)[C@H](CC[C@@H]4[C@@]5(C)CC=C(C6=CCC(Cl)(C(=O)O)CC6)C(C)(C)[C@@H]5CC[C@]43C)[C@@H]12` (stereo partly drawn) [Example A7, 1-chloro-4-((1R,3aS,5aR,5bR,7aR,11aS,11bR,13aR,13bR)-3a-((2-(1,1-dioxidothiomorpholino)ethyl)amino)-5a,5b,8,8,11a-pentamethyl-1-(prop-1-en-2-yl)-2,3,3a,4,5,5a,5b,6,7,7a,8,11,11a,11b,12,13,13a,13b-octadecahydro-1H-cyclopenta[a]chrysen-9-yl)cyclohex-3-enecarboxylic acid], for which the EC50 amounted to 2.91 nM. As for `C=C(C)[C@@H]1CC[C@]2(NCCN3CCC(S(C)(=O)=O)CC3)CC[C@]3(C)[C@H](CC[C@@H]4[C@@]5(C)CC=C(C6=CCC(F)(C(=O)O)CC6)C(C)(C)[C@@H]5CC[C@]43C)[C@@H]12` (stereo partly drawn) [Example A9, 1-fluoro-4-((1R,3aS,5aR,5bR,7aR,11aS,11bR,13aR,13bR)-5a,5b,8,8,11a-pentamethyl-3a-((2-(4-(methylsulfonyl)piperidin-1-yl)ethyl)amino)-1-(prop-1-en-2-yl)-2,3,3a,4,5,5a,5b,6,7,7a,8,11,11a,11b,12,13,13a,13b-octadecahydro-1H-cyclopenta[a]chrysen-9-yl)cyclohex-3-enecarboxylic acid], the figure is 2.84 nM; as for `C=C(C)[C@@H]1CC[C@]2(NCCN3CCS(=O)(=O)CC3)CC[C@]3(C)[C@H](CC[C@@H]4[C@@]5(C)CC=C(C6=CCC(CCO)(C(=O)O)CC6)C(C)(C)[C@@H]5CC[C@]43C)[C@@H]12` (stereo partly drawn) [Example A10, 4-((1R,3aS,5aR,5bR,7aR,11aS,11bR,13aR,13bR)-3a-((2-(1,1-dioxidothiomorpholino)ethyl)amino)-5a,5b,8,8,11a-pentamethyl-1-(prop-1-en-2-yl)-2,3,3a,4,5,5a,5b,6,7,7a,8,11,11a,11b,12,13,13a,13b-octadecahydro-1H-cyclopenta[a]chrysen-9-yl)-1-(2-hydroxyethyl)cyclohex-3-enecarboxylic acid], 4.86 nM. `C=C(C)[C@@H]1CC[C@]2(NCCN3CCS(=O)(=O)CC3)CC[C@]3(C)[C@H](CC[C@@H]4[C@@]5(C)CC=C(C6=CCC(CO)(C(=O)O)CC6)C(C)(C)[C@@H]5CC[C@]43C)[C@@H]12` (stereo partly drawn) [Example A12, 4-((1R,3aS,5aR,5bR,7aR,11aS,11bR,13aR,13bR)-3a-((2-(1,1-dioxidothiomorpholino)ethyl)amino)-5a,5b,8,8,11a-pentamethyl-1-(prop-1-en-2-yl)-2,3,3a,4,5,5a,5b,6,7,7a,8,11,11a,11b,12,13,13a,13b-octadecahydro-1H-cyclopenta[a]chrysen-9-yl)-1-(hydroxymethyl)cyclohex-3-enecarboxylic acid]: the EC50 was 2.46 nM. Then `C=C(C)[C@@H]1CC[C@]2(CNCCCN3CCS(=O)(=O)CC3)CC[C@]3(C)[C@H](CC[C@@H]4[C@@]5(C)CC=C(C6=CC7(C6)CC(C(=O)O)(C(=O)O)C7)C(C)(C)[C@@H]5CC[C@]43C)[C@@H]12` [Example A14, 6-((1R,3aS,5aR,5bR,7aR,11aS,11bR,13aR,13bR)-3a-(((3-(1,1-dioxidothiomorpholino)propyl)amino)methyl)-5a,5b,8,8,11a-pentamethyl-1-(prop-1-en-2-yl)-2,3,3a,4,5,5a,5b,6,7,7a,8,11,11a,11b,12,13,13a,13b-octadecahydro-1H-cyclopenta[a]chrysen-9-yl)spiro[3.3]hept-5-ene-2,2-dicarboxylic acid], with 190 nM; and `C=C(C)[C@@H]1CC[C@]2(NCCN3CCS(=O)(=O)CC3)CC[C@]3(C)[C@H](CC[C@@H]4[C@@]5(C)CC=C(C6=CC(C)=C(C(=O)O)CC6)C(C)(C)[C@@H]5CC[C@]43C)[C@@H]12` [Example A16, 4-((1R,3aS,5aR,5bR,7aR,11aS,11bR,13aR,13bR)-3a-((2-(1,1-dioxidothiomorpholino)ethyl)amino)-5a,5b,8,8,11a-pentamethyl-1-(prop-1-en-2-yl)-2,3,3a,4,5,5a,5b,6,7,7a,8,11,11a,11b,12,13,13a,13b-octadecahydro-1H-cyclopenta[a]chrysen-9-yl)-2-methylcyclohexa-1,3-dienecarboxylic acid], with 2.23 nM. With `C=C(C)[C@@H]1CC[C@]2(NCCN3CCS(=O)(=O)CC3)CC[C@]3(C)[C@H](CC[C@@H]4[C@@]5(C)CC=C(C6=COC(C)(C(=O)O)OC6)C(C)(C)[C@@H]5CC[C@]43C)[C@@H]12` (stereo partly drawn) [Example A17, 5-((1R,3aS,5aR,5bR,7aR,11aS,11bR,13aR,13bR)-3a-((2-(1,1-dioxidothiomorpholino)ethyl)amino)-5a,5b,8,8,11a-pentamethyl-1-(prop-1-en-2-yl)-2,3,3a,4,5,5a,5b,6,7,7a,8,11,11a,11b,12,13,13a,13b-octadecahydro-1H-cyclopenta[a]chrysen-9-yl)-2-methyl-4H-1,3-dioxine-2-carboxylic acid], the EC50 stood at 320 nM. Then `C=C(C)[C@@H]1CC[C@]2(NCCN3CCS(=O)(=O)CC3)CC[C@]3(C)[C@H](CC[C@@H]4[C@@]5(C)CC=C(C6=CC(C(=O)O)CC6)C(C)(C)[C@@H]5CC[C@]43C)[C@@H]12` (stereo partly drawn) [Example A21, 3-((1R,3aS,5aR,5bR,7aR,11aS,11bR,13aR,13bR)-3a-((2-(1,1-dioxidothiomorpholino)ethyl)amino)-5a,5b,8,8,11a-pentamethyl-1-(prop-1-en-2-yl)-2,3,3a,4,5,5a,5b,6,7,7a,8,11,11a,11b,12,13,13a,13b-octadecahydro-1H-cyclopenta[a]chrysen-9-yl)cyclopent-2-enecarboxylic acid], with 2.76 nM; and `C=C(C)[C@@H]1CC[C@]2(NCCN3CCS(=O)(=O)CC3)CC[C@]3(C)[C@H](CC[C@@H]4[C@@]5(C)CC=C(C6=CCC(C(=O)O)C6)C(C)(C)[C@@H]5CC[C@]43C)[C@@H]12` (stereo partly drawn) [Example A22, 3-((1R,3aS,5aR,5bR,7aR,11aS,11bR,13aR,13bR)-3a-((2-(1,1-dioxidothiomorpholino)ethyl)amino)-5a,5b,8,8,11a-pentamethyl-1-(prop-1-en-2-yl)-2,3,3a,4,5,5a,5b,6,7,7a,8,11,11a,11b,12,13,13a,13b-octadecahydro-1H-cyclopenta[a]chrysen-9-yl)cyclopent-3-enecarboxylic acid], with 3.53 nM; and `C=C(C)[C@@H]1CC[C@]2(NCCN3CCS(=O)(=O)CC3)CC[C@]3(C)[C@H](CC[C@@H]4[C@@]5(C)CC=C(C6=CCC(CC(=O)O)CC6)C(C)(C)[C@@H]5CC[C@]43C)[C@@H]12` (stereo partly drawn) [Example A25, 2-(4-((1R,3aS,5aR,5bR,7aR,11aS,11bR,13aR,13bR)-3a-((2-(1,1-dioxidothiomorpholino)ethyl)amino)-5a,5b,8,8,11a-pentamethyl-1-(prop-1-en-2-yl)-2,3,3a,4,5,5a,5b,6,7,7a,8,11,11a,11b,12,13,13a,13b-octadecahydro-1H-cyclopenta[a]chrysen-9-yl)cyclohex-3-en-1-yl)acetic acid], with 1.31 nM. Then `C=C(C)[C@@H]1CC[C@]2(NCCN3CCS(=O)(=O)CC3)CC[C@]3(C)[C@H](CC[C@@H]4[C@@]5(C)CC=C(C6=CC=C(C(=O)O)CC6)C(C)(C)[C@@H]5CC[C@]43C)[C@@H]12` [Example A29, 4-((1R,3aS,5aR,5bR,7aR,11aS,11bR,13aR,13bR)-3a-((2-(1,1-dioxidothiomorpholino)ethyl)amino)-5a,5b,8,8,11a-pentamethyl-1-(prop-1-en-2-yl)-2,3,3a,4,5,5a,5b,6,7,7a,8,11,11a,11b,12,13,13a,13b-octadecahydro-1H-cyclopenta[a]chrysen-9-yl)cyclohexa-1,3-dienecarboxylic acid], with 1.37 nM; and `C=C(C)[C@@H]1CC[C@]2(NCCS(=O)(=O)c3ccccc3)CC[C@]3(C)[C@H](CC[C@@H]4[C@@]5(C)CC=C(C6=CC=C(C(=O)O)CC6)C(C)(C)[C@@H]5CC[C@]43C)[C@@H]12` [Example A30, 4-((1R,3aS,5aR,5bR,7aR,11aS,11bR,13aR,13bR)-5a,5b,8,8,11a-pentamethyl-3a-((2-(phenylsulfonyl)ethyl)amino)-1-(prop-1-en-2-yl)-2,3,3a,4,5,5a,5b,6,7,7a,8,11,11a,11b,12,13,13a,13b-octadecahydro-1H-cyclopenta[a]chrysen-9-yl)cyclohexa-1,3-dienecarboxylic acid], with 90 nM; and `C=C(C)[C@@H]1CC[C@]2(NCCN3CCS(=O)(=O)CC3)CC[C@]3(C)[C@H](CC[C@@H]4[C@@]5(C)CC=C(C6=CCC(NC(C)=O)(C(=O)O)CC6)C(C)(C)[C@@H]5CC[C@]43C)[C@@H]12` (stereo partly drawn) [Example A31, 1-acetamido-4-((1R,3aS,5aR,5bR,7aR,11aS,11bR,13aR,13bR)-3a-((2-(1,1-dioxidothiomorpholino)ethyl)amino)-5a,5b,8,8,11a-pentamethyl-1-(prop-1-en-2-yl)-2,3,3a,4,5,5a,5b,6,7,7a,8,11,11a,11b,12,13,13a,13b-octadecahydro-1H-cyclopenta[a]chrysen-9-yl)cyclohex-3-enecarboxylic acid], with 10 nM.
